# From patent US7855232B2, “Organoselenium compound for cancer chemoprevention” (LKT Laboratories, Inc., priority 2001, dated 2010)
# Marks after values point to notes of the source that are not given here.
# How the values were obtained:
# [1] = system: Glutathione S-Transferase; assay: Glutathione S-transferase (GST) activity in tissue cytosol of treated mice, CDNB substrate; type: in vivo, Female A/J mice; details: for Ratio Test/con (GST): gavage; for GST act.: gavage in corn oil
# Description: The activity of cytosolic was assayed according to the method of Habig et al. using 1-chloro-2,4-dinitrobenzene (CDNB) as the substrate. Habig et al, J. Biol. Chem. 249:7130-7139 (1974). The complete solution contains, in a total volume of 2.0 mL, 0.1 M phosphate buffer, pH 6.5, 5 mM glutathione, 1 mM CDNB, and 20 μL of the cytosol. The reaction was monitored at 340 nm in a Beckman Model DU65 UV-VIS spectrophotometer. Assays were performed at 30° C. Complete assay mixture without the cytosolic enzyme was used as the reference blank. Data as analyzed by the Student's “t” test and P values were obtained in comparison to the control.
# [2] = system: GSH; assay: Glutathione (GSH) concentration in tissues of treated mice, HPLC; type: in vivo, Female A/J mice; details: liver; for Ratio Test/con (GSH): gavage; for GSH conc.: gavage in corn oil
# Description: GSH was quantitated by modification of the procedure Siller-Cepeda et al. Plant Cell Physiol. 32:1179-1185 (1991). Aliquots of tissue homogenates were mixed with equal volumes of 20% PCA containing 2 mM BPDS. Vortex, centrifuge at 7800×g for 15 minutes at 4° C. and 250 μl supernatant transferred into a microfuge tube containing 25 μl of γ-glu-glu as internal standard. The samples were carboxymethylated with 25 μl of 100 mM iodoacetic acid dissolved in 0.2 mM m-cresol purple sodium salt solution. The pH of the solution was adjusted to 9-10 by adding 350 μl of KOH (2M)-KHCO3 (2.4 M) mixture and incubated in the dark for 15 minutes. After carboxymethylation, the samples were derivatized with 500 μl of 1% dinitrofluorobenzene (DNFB) and kept in the dark at 4° C. overnight. The samples were centrifuged at 13,000×g for 15 minutes, filtered through 0.2 μm filter, and were analyzed with a SHIMADZU two-pump gradient HPLC system. Samples were injected by a SHIMADZU SIL-10AV Autoinjector onto a Varian 3-aminopropyl MICROSORB-MV column (4.6×250 mm) operated at ambient temperature with a flow rate of 1 ml/min. Absorbance of the dinitrophenyl derivatives was monitored at 365 nm. The amount of GSH was calculated from a standard curve using γ-glu-glu as internal standard.
# [3] = system: aberrant crypts (AC); assay: Inhibition of DMH-induced aberrant crypt (AC) formation in colon; type: in vivo, Female CF1 mice; details: with DMH
# Source text: Precancerous lesions called aberrant crypts (AC) are used as a marker for colon carcinogenesis. Mice and rats, when exposed to colon-specific carcinogen, develop preneoplastic changes in colon crypts which leads to malignancy through dysplasia-carcinoma sequence. […] McLellan et al., Cancer Res. 48:6183-6186 (1988); McLellan et al., Cancer Res. 48:2311-2315 (1988).
# The effect of colon-specific carcinogenesis is typically seen in the induction of AC formation in less than two weeks. AC formation is dose dependent and can be quantitated without elaborate instrumentation. In view of the short time-frame required to get quantifiable results, this bio-assay is a useful prescreening tool for the evaluation of chemopreventative efficacy of compounds that are effective against colon cancer. The protocol for aberrant crypts is shown below:
# Female CF1 mice, 3 weeks of age, were purchased from Harlan Sprague-Dawley, Indianapolis, 1N. They were housed, 5 mice per cage, in temperature and humidity-controlled animal quarters with 12 hours light/dark cycle and fed AIN 76A semipurified diet until the ent of the experiment. Water was given ad libitim. The animals were separated into experimental and control groups. The test compounds 0.03-0.04 mmol/kg body weight dissolved in 0.3 mL corn oil, were given by gavage one per day for 8 days. One hour after the inhibitors administration on the 4th and 8th days, 0.4 mg of DMH in 0.2 mL of 0.001 M EDTA, adjusted to pH 6.5 with sodium bicarbonate, was given by gavage. Starting on the 9th day, the inhibitors were given once every other day for an additional 3 weeks. This regimen of inhibitor administration ensures the coverage both the initiation and post initiation periods of carcinogen exposure.
# At the end of the 3 week period, the animals were sacrificed and the colons removed. The starting and terminating weights of the animals were recorded. The procedures for the determination of aberrant crypts were those reported by Bird (Cancer Letters 37:147-151 (1987)). The mouse colon including the caecum was removed, rinsed with PBS, and opened longitudinally. The colon contents was removed by washing with PBS. The colon was spread mucosal side up on a piece of filter paper and fixed in buffered formalin overnight. It was then stained with 0.2% methylene blue in PBS for 60 min. The AC foci was read under light microscope. The AC are topographically distinguished by their increased size, increased pericryptal zone, and thicker and deeply stained epithelial lining compared to normal crypts. The number of foci and AC in the colorectal and caecal parts of the colon were recorded separately. The significance of the data was determined by the analysis of variance method. The significance of the incidence of aberrant crypts bearing animals was analyzed by the X^2 test. The aberrant crypts were examined histologically to verify the dysplastic nature of the changes in animals treated with carcinogens and those treated with carcinogens and inhibitors.
# [4] = colon, dose 0.02 mmol/Kg body weight
# [5] = colon, dose 0.04 mmol/Kg body weight
# [6] = forestomach, dose 0.02 mmol/Kg body weight
# [7] = forestomach, dose 0.04 mmol/Kg body weight
# [8] = liver, dose 0.02 mmol/Kg body weight
# [9] = liver, dose 0.04 mmol/Kg body weight
# [10] = lung, dose 0.02 mmol/Kg body weight
# [11] = lung, dose 0.04 mmol/Kg body weight
# [12] = small intestinal mucosa, dose 0.02 mmol/Kg body weight
# [13] = small intestinal mucosa, dose 0.04 mmol/Kg body weight
smiles,measurement,setting,value
"N#C[Se]Cc1ccc(C[Se]C#N)s1 [(2) TDMSC, thienyl-2,5-di-methylene selenocyanate]",Ratio Test/con (GST),[1]; [4],1.00
same,GST act.,[1]; [4],0.40 ± 0.04 μmol/min mg protein
same,Ratio Test/con (GST),[1]; [5],1.00
same,GST act.,[1]; [5],0.40 ± 0.01 μmol/min mg protein
same,Ratio Test/con (GST),[1]; [6],1.15
same,GST act.,[1]; [6],0.90 ± 0.12 μmol/min mg protein
same,Ratio Test/con (GST),[1]; [7],1.15
same,GST act.,[1]; [7],0.90 ± 0.11 ^g μmol/min mg protein
same,Ratio Test/con (GST),[1]; [8],1.27
same,GST act.,[1]; [8],1.43 ± 0.2 ^g μmol/min mg protein
same,Ratio Test/con (GST),[1]; [9],1.12
same,GST act.,[1]; [9],1.26 ± 0.21 μmol/min mg protein
same,Ratio Test/con (GST),[1]; [10],1.04
same,GST act.,[1]; [10],0.49 ± 0.07 μmol/min mg protein
same,Ratio Test/con (GST),[1]; [11],1.15
same,GST act.,[1]; [11],0.54 ± 0.09 μmol/min mg protein
same,Ratio Test/con (GST),[1]; [12],1.03
same,GST act.,[1]; [12],0.35 ± 0.01 μmol/min mg protein
same,Ratio Test/con (GST),[1]; [13],1.18
same,GST act.,[1]; [13],0.40 ± 0.16 μmol/min mg protein
same,Ratio Test/con (GSH),[2]; dose 0.02 mmol/Kg body weight,1.28
same,GSH conc.,[2]; dose 0.02 mmol/Kg body weight,4.91 ± 1.16 μmol/gm tissue weight
same,Ratio Test/con (GSH),[2]; dose 0.04 mmol/Kg body weight,1.20
same,GSH conc.,[2]; dose 0.04 mmol/Kg body weight,4.60 ± 2.13 μmol/gm tissue weight
same,ACF/Colon,"[3]; low dose 0.03 mmol/kg body weight, gavage, DMH alone 1.13",0.50
same,AC/Foci,"[3]; low dose 0.03 mmol/kg body weight, gavage, DMH alone 1.28",1.00
same,AC/Colon,"[3]; low dose 0.03 mmol/kg body weight, gavage, DMH alone 1.44",0.50
same,Total ACF,"[3]; low dose 0.03 mmol/kg body weight, gavage, DMH alone 18",4
same,Total AC,"[3]; low dose 0.03 mmol/kg body weight, gavage, DMH alone 23",4
same,% animals,"[3]; low dose 0.03 mmol/kg body weight, gavage, DMH alone 43.7",24.0%
same,protection (inhibition of aberrant crypt formation),[3]; low dose,more than 50%
